Reference: patent US20220090217A1, “BIOMARKERS AND USES THEREOF IN THE TREATMENT OF CHRONIC HBV INFECTION” (Janssen Sciences Ireland Unlimited Company, priority 2020, published 2022)

Tested on: chronic hepatitis B (CHB) patients
Assay: Onset of clinical relapse after stop of NA treatment (Cox proportional hazard regression)
Format: in vivo, human
Conditions: entecavir compared to tenofovir; among the 110 clinical relapsers
Excerpt: Patients and Study Design: In this multi-center prospective study in Taiwan, 242 CHB patients were enrolled while in their last half year of a minimum 3-year treatment regimen with direct antivirals. Of them, 47 were excluded due to protocol violation, screening failure, lost to follow-up, withdrawal by the subject, use of immune related therapy, or on-treatment clinical relapse. An additional 14 were excluded as the analysis required patients to be hepatitis B e-antigen (HBeAg) negative, hepatitis virus (HBV) DNA <60 IU/mL, and alanine transaminase (ALT) <80 U/L at the last on-treatment visit, leaving […] patients eligible for analysis. […] Cumulative incidence of virological and clinical relapse after stop of treatment was assessed by Kaplan-Meier curves (FIGS. 1A and 1B). […] Statistical Analysis of HLA Data: The association between the HLA alleles (at two and four digits resolution for each locus) and diversity (genetic homozygosity and HED score, independently) and onset of relapse was assessed using a Cox model (Harrell et al., JAMA: The Journal of the American Medical Association, 1982, 247: 2543) including HBsAg level at the last visit on treatment (high (≥100 IU/mL) vs. low (<100 IU/mL)) and the antiviral treatment at enrolment (tenofovir vs. entecavir) as main effects. […]

SMILES: C=C1[C@H](CO)[C@@H](O)C[C@@H]1n1cnc2c(=O)[nH]c(N)nc21 [entecavir]
- onset of clinical relapse later after stopping treatment, on average: 100 days
